# Measured values published in US20230416712A1, “APPLICATION OF SUBSTANCE THAT REDUCES THE CONTENT OR ACTIVITY OF KAT7 IN PREVENTING SENESCENCE AND TREATING HEPATIC FIBROSIS” (INSTITUTE OF ZOOLOGY, CHINESE ACADEMY OF SCIENCES, priority 2020, published 2023).
# How the values were obtained:
# [1] = tested on: WS mesenchymal precursor cells (WS hMPCs); test: Senescence of WS hMPCs treated with KAT7 inhibitor; type: cell-based, human; conditions: 50 nM; passages 2-3 after treatment; DMSO control; FIGS. 6C-6D
# Protocol: Passage-4 WS mesenchymal precursor cells (WS hMPCs) in example 1 were used as test cells, and the cells were treated with a DMSO solution of 50 nM of WM-3835. The WM-3835 (with a structural formula as shown in a of FIGS. 6A-6I) was synthesized by entrusting WuXi AppTec, and a DMSO solvent was used as a control.
# After the treatment, the cells were continuously passaged to passages 2-3. The cells were collected to detect a KAT7 protein knockdown efficiency (FIG. 6B), and SA-β-gal staining of cell senescence markers and detection of a cell proliferation molecular marker (Ki67) were performed.
# [2] = tested on: Human primary hepatocytes (hHEPs); test: Senescence of human primary hepatocytes treated with KAT7 inhibitor; type: cell-based; conditions: 100 nM
# Protocol: Human primary hepatocytes (hHEPs) were used as test cells (a product of Lonza, with an article No. of HUCPI), and the cells were treated with a DMSO solution of 100 nM of WM-3835, and DMSO was used as a control.
compound,measurement,setting,value
Cc1cc(-c2ccccc2)cc(C(=O)NNS(=O)(=O)c2cccc(O)c2)c1F [WM-3835],"senescence of WS hMPCs (SA-β-gal staining, Ki67)",[1],can delay the senescence of WS hMPCs
same,expressions of inflammatory genes and SASP-associated genes (RNA-seq),[2]; FIGS. 6E-6I,down-regulated
same,expressions of metabolism-related genes (RNA-seq),[2]; FIGS. 6E-6I,up-regulated
same,"senescence of hepatocytes (P15, IL6 by RT-qPCR)","[2]; cultured 8 d, compared with DMSO group",significantly delay the senescence of hepatocytes
